Laboratory results published in publication PMC12560097, “An injectable hydrogel containing N-acetylglycine for the treatment of Gaucher disease” (RSC Advances, 2025).

Target: T1, glucocerebrosidase (GCase; recombinant human-derived GBA/Glucosylceramidase, rGCase) (Homo sapiens, UniProt P04062)
T1 construct: gene GBA1; recombinant human-derived GBA/Glucosylceramidase (rGCase)
T1 sequence (P04062 40-536): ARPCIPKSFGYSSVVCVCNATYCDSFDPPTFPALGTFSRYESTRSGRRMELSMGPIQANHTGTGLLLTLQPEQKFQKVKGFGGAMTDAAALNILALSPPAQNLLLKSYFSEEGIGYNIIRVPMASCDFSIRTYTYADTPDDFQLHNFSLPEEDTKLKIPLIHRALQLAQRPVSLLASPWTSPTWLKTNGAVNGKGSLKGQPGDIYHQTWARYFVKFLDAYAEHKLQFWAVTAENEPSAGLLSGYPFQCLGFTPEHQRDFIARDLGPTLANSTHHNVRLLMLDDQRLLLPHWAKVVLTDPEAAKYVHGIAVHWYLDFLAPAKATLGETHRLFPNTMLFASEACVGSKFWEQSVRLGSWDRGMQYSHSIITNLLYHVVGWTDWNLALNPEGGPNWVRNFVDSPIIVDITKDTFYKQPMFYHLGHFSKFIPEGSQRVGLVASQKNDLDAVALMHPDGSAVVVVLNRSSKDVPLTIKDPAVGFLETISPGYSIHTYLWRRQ
Experiment: fluorogenic 4MU-β-Glc inhibition assay with recombinant GCase, pH […]
Assay type: biochemical

- IC50: 48.5 µM
Structure (SMILES): CC(=O)NCC(=O)O [NAG, N-acetylglycine]
